Data: patent US20170240556A1, “BIFLUORODIOXALANE-AMINO-BENZIMIDAZOLE KINASE INHIBITORS FOR THE TREATMENT OF CANCER, AUTOIMMUNEINFLAMMATION AND CNS DISORDERS” (4SC DISCOVERY GMBH, priority 2012, published 2017)

Experiments:
Assay in all cases: Proliferation Assay
Assay type in all cases: cell-based
[1] = tested on: ACHN (kidney); conditions: Homo sapiens, 72 h, read-out: IC50 inhibition of cell growth
Method: (§1) For the determination of the inhibitory capacity of compounds of the present invention (in the following: “test compound(s)”) on cell growth, cancer cells were seeded into microtitre plates, treated with different concentrations of test compound or left untreated, and after 72 h the protein content was determined as an equivalent for the cell number.
(§2) Test compounds were dissolved in 100% DMSO and predilutions in cell culture medium were prepared with a final concentration of 0.1% DMSO in medium. The cell culture medium for dilution of the test compounds, consecutive culturing of cell lines and usage during the assay was a cell line specific medium as recommended by the cell line supplier and identical for all three applications mentioned above. After a 24-hour pre-growth period of the seeded cancer cells, the test compound containing media or medium containing 0.1% DMSO as control was added to the cells. The cells were allowed to grow at 37° C. for 72 hours. In addition, all experiments contained a few plates with cells that were processed for measurement immediately after the 24 hours recovery period. These plates contained information about the cell number that existed before treatment, at time zero, and served to calculate the cytotoxicity and/or growth inhibitory effects.
(§3) After treatment, cells were precipitated by addition of 10% TCA (trichloracetic acid). Prior to fixation, the media was aspirated. After an hour of incubation at 4° C. the plates were washed twice with 400 μl of deionized water. Cells were then stained with 100 μl of a 0.08% wt/v SRB (sulforhodamine). The plates were allowed to sit for at least 30 min and washed six times with 1% acetic acid to remove unbound staining agent. The plates were left to dry at room temperature and bound SRB was solubilized with 100 μl of 10 mM Tris base. Measurement of optical density was performed at 560 nm on a Victor 2 plate reader (Perkin Elmer, Germany).
(§4) One common way to express the effect of an anticancer agent is to measure cell viability and survival in the presence of the test agent as % Treated/Control×100. The relationship between the viability and dose is called a dose response curve. Those dose response curves were determined by using algorithms developed by Oncolead GmbH & Co. KG, Munich, Germany, that can be compared to commercial applications, e.g. XLfit™ (ID Business Solutions Ltd., Guildford, UK) algorithm “205”.

[2] = tested on: T24 (bladder); conditions: 72 h, read-out: IC50 inhibition of cell growth
Method: as §1, §2, §3, §4

[3] = tested on: U87MG (brain); conditions: Homo sapiens, U-87 MG, 72 h, read-out: IC50 inhibition of cell growth
Method: as §1, §2, §3, §4

[4] = tested on: SKNSH (brain); conditions: Homo sapiens, SK-N-SH, 72 h, read-out: IC50 inhibition of cell growth
Method: as §1, §2, §3, §4

[5] = tested on: MDAMB468 (breast); conditions: Homo sapiens, MDA-MB-468, 72 h, read-out: IC50 inhibition of cell growth
Method: as §1, §2, §3, §4

[6] = tested on: HS729 (muscle); conditions: 72 h, read-out: IC50 inhibition of cell growth
Method: as §1, §2, §3, §4

[7] = tested on: SNB75 (brain); conditions: Homo sapiens, SNB-75, 72 h, read-out: IC50 inhibition of cell growth
Method: as §1, §2, §3, §4

[8] = tested on: JEG3 (placenta); conditions: Homo sapiens, JEG-3, 72 h, read-out: IC50 inhibition of cell growth
Method: as §1, §2, §3, §4

[9] = tested on: RDES (bone); conditions: RD-ES, 72 h, read-out: IC50 inhibition of cell growth
Method: as §1, §2, §3, §4

[10] = tested on: SKOV3 (ovary); conditions: Homo sapiens, SK-OV-3, 72 h, read-out: IC50 inhibition of cell growth
Method: as §1, §2, §3, §4

[11] = tested on: UMUC3 (bladder); conditions: Homo sapiens, 72 h, read-out: IC50 inhibition of cell growth
Method: as §1, §2, §3, §4

[12] = tested on: HT1080 (connective tissue); conditions: Homo sapiens, HT-1080, 72 h, read-out: IC50 inhibition of cell growth
Method: as §1, §2, §3, §4

[13] = tested on: BT20 (breast); conditions: Homo sapiens, BT-20, 72 h, read-out: IC50 inhibition of cell growth
Method: as §1, §2, §3, §4

[14] = tested on: DLD1 (colon); conditions: Homo sapiens, DLD-1, 72 h, read-out: IC50 inhibition of cell growth
Method: as §1, §2, §3, §4

[15] = tested on: A204 (muscle); conditions: Homo sapiens, 72 h, read-out: IC50 inhibition of cell growth
Method: as §1, §2, §3, §4

[16] = tested on: MDAMB436 (breast); conditions: Homo sapiens, MDA-MB-436, 72 h, read-out: IC50 inhibition of cell growth
Method: as §1, §2, §3, §4

[17] = tested on: SW620 (colon); conditions: Homo sapiens, SW-620, 72 h, read-out: IC50 inhibition of cell growth
Method: as §1, §2, §3, §4

[18] = tested on: IMR90 (lung); conditions: Homo sapiens, IMR-90, 72 h, read-out: IC50 inhibition of cell growth
Method: as §1, §2, §3, §4

[19] = tested on: MIAPACA2 (pancreas); conditions: Homo sapiens, MIA PaCa-2, 72 h, read-out: IC50 inhibition of cell growth
Method: as §1, §2, §3, §4

[20] = tested on: HS578T (breast); conditions: Homo sapiens, Hs-578T, 72 h, read-out: IC50 inhibition of cell growth
Method: as §1, §2, §3, §4

[21] = tested on: PLCPRFS (liver); conditions: 72 h, read-out: IC50 inhibition of cell growth
Method: as §1, §2, §3, §4

[22] = tested on: 22RV1 (prostate); conditions: Homo sapiens, 72 h, read-out: IC50 inhibition of cell growth
Method: as §1, §2, §3, §4

[23] = tested on: CAKI1 (kidney); conditions: Homo sapiens, CAKI-1, 72 h, read-out: IC50 inhibition of cell growth
Method: as §1, §2, §3, §4

[24] = tested on: EFO21 (ovary); conditions: Homo sapiens, EFO-21, 72 h, read-out: IC50 inhibition of cell growth
Method: as §1, §2, §3, §4

[25] = tested on: CLS439 (bladder); conditions: 72 h, read-out: IC50 inhibition of cell growth
Method: as §1, §2, §3, §4

[26] = tested on: TE671 (muscle); conditions: Homo sapiens, TE-671, 72 h, read-out: IC50 inhibition of cell growth
Method: as §1, §2, §3, §4

- IC50 [1]: ≤ 1000 nM
- IC50 [2]: ≤ 1000 nM
- IC50 [3]: ≤ 1000 nM
- IC50 [4]: ≤ 1000 nM
- IC50 [5]: ≤ 1000 nM
- IC50 [10]: ≤ 1000 nM
- IC50 [12]: ≤ 1000 nM
- IC50 [13]: ≤ 1000 nM
- IC50 [14]: ≤ 1000 nM
- IC50 [16]: ≤ 1000 nM
- IC50 [17]: ≤ 1000 nM
- IC50 [19]: ≤ 1000 nM
- IC50 [22]: ≤ 1000 nM
Compound: COc1cccc(C(=O)Nc2nc3cc4c(cc3[nH]2)OC(F)(F)O4)c1 [Compound 56, N-(2,2-difluoro-5H-[1,3]dioxolo[4′,5′:4,5]benzo[1,2-d]imidazol-6-yl)-3-methoxybenzamide]
- IC50 [6]: ≤ 1000 nM
- IC50 [7]: ≤ 1000 nM
- IC50 [8]: ≤ 1000 nM
- IC50 [9]: ≤ 1000 nM
- IC50 [11]: ≤ 1000 nM
- IC50 [15]: ≤ 1000 nM
- IC50 [18]: ≤ 1000 nM
- IC50 [20]: ≤ 1000 nM
- IC50 [21]: ≤ 1000 nM
- IC50 [23]: ≤ 1000 nM
- IC50 [24]: ≤ 1000 nM
- IC50 [25]: ≤ 1000 nM
- IC50 [26]: ≤ 1000 nM
